Results taken from patent US20170197910A1, “SUBSTITUTED VINYL AND ALKYNYL CYANOCYCLOALKANOLS AND VINYL AND ALKYNYL CYANOHETEROCYCLOALKANOLS AS ACTIVE AGENTS AGAINST ABIOTIC PLANT STRESS” (BAYER CROPSCIENCE AKTIENGESELLSCHAFT, priority 2014, published 2017).

How the values were obtained:
[1] = biological target: T1, phosphatase ABI1 via the co-regulator RCAR11/PYR1 (Arabidopsis thaliana, UniProt O49686+P49597); assay: In vitro inhibition of phosphatase ABI1 via co-regulator RCAR11/PYR1, MUP dephosphorylation fluorescence assay; format: biochemical; conditions: concentration of 5 mM of the substance in DMSO and water; MUP substrate, 35° C., 20 minutes
T1 sequence (O49686 1-191): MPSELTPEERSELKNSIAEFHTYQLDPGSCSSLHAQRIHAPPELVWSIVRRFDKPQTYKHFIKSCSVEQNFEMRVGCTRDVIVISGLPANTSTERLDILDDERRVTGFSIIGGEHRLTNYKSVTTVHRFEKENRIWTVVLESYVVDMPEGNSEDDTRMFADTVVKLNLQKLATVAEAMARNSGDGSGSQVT
T1 sequence (P49597 1-434): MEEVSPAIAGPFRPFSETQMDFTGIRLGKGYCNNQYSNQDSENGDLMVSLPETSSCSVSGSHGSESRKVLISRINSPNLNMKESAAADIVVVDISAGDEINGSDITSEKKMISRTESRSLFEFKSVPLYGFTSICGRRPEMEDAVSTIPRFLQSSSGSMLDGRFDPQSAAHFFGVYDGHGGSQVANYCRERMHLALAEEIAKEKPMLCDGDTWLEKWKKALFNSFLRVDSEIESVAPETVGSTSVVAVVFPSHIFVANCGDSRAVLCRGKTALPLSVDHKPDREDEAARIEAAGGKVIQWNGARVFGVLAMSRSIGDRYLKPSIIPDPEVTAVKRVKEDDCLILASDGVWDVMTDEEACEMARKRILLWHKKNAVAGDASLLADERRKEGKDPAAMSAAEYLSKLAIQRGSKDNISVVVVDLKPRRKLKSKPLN
Source text: Effects of the phytohormone abscisic acid (ABA) on the behaviour of plants under abiotic stress and the mechanism of action of ABA are described in the literature (cf. Abrams et al., WO97/23441, Cutler, Park et al. Science, 2009, 324, 1068; Grill et al. Science, 2009, 324, 1064; Tanokura et al. Biophysics, 2011, 7, 123; Schroeder et al. Plant J. 2010, 61, 290). Therefore, it is possible with the aid of a suitable in vitro test system to derive a correlation between the action of ABA and the stress response of a plant under abiotic stress. In the event of water deficiency (drought stress), plants form the phytohormone abscisic acid (ABA). […]
The assay described hereinafter utilizes the inhibition of the phosphatase ABI1 via the co-regulator RCAR11/PYR1 aus Arabidopsis thaliana. For the determination of activity, the dephosphorylation of 4-methylumbelliferyl phosphate (MUP) was measured at 460 nm. […]
Enzyme buffer mix and substrate mix were made up 5 minutes prior to the addition and warmed to a temperature of 35° C. […] Finally, a relative fluorescence measurement was made at 35° C. with a BMG Labtech “POLARstar Optima” microplate reader using a 340/10 nm excitation filter and a 460 nm emission filter. […]

Triticum aestivum = assay: In vivo drought stress test on crop plants, spray application, visual scoring vs stressed control (TRZAS); parameters: key: 0: no positive effect; 10: slight positive effect; 20: clear positive effect; 30: strong positive effect; conditions: dosage 250 g/ha, average score of 3 pots vs stressed control
Description: (§1) Seeds of monocotyledonous and dicotyledonous crop plants were sown in sandy loam in plastic pots, covered with soil or sand and cultivated in a greenhouse under good growth conditions. The trial plants were treated at the early leaf stage (BBCH10-BBCH13). To assure uniform water supply before commencement of stress, the potted plants were supplied with water by dam irrigation prior to substance application. The inventive compounds, formulated in the form of wettable powders (WP), were sprayed onto the green parts of the plants as an aqueous suspension at an equivalent water application rate of 600 I/ha with addition of 0.2% wetting agent (e.g. agrotin). Substance application was followed immediately by stress treatment of the plants. […] Once this juncture had been reached, the appearance of the plants treated with test substances was recorded in comparison to the stressed control plants by the following categories: • 0 no positive effect • 10 slight positive effect • 20 clear positive effect • 30 strong positive effect In order to rule out any influence on the effects observed by any fungicidal or insecticidal action of the test compounds, it was additionally ensured that the tests proceeded without fungal infection or insect infestation. In each test, for each crop and dosage, plants in 3 pots were treated and evaluated separately. […]

Zea mays = assay: In vivo drought stress test on crop plants, spray application, visual scoring vs stressed control (ZEAMX); parameters: key: 0: no positive effect; 10: slight positive effect; 20: clear positive effect; 30: strong positive effect; conditions: dosage 250 g/ha, average score of 3 pots vs stressed control
Description: as §1

SMILES | ABI1 inhibition [1] | Effect (TRZAS) (Triticum aestivum) | Effect (ZEAMX) (Zea mays)
CC(C)C(O)(C#Cc1ccccc1C(=O)O)C1(C#N)CC1 (stereo not shown) [I.1-127, 2-[3-(1-Cyanocyclopropyl)-3-hydroxy-4-methylpent-1-yn-1-yl]benzoic acid] | +++ (90%>inhibition≧70%) | – | –
COC(=O)c1ccccc1C#CC(O)(C(C)C)C1(C#N)CC1 (stereo not shown) [I.1-130, Methyl 2-[3-(1-cyanocyclopropyl)-3-hydroxy-4-methylpent-1-yn-1-yl]benzoate] | – | 20 | 20
CC1=CC(=O)CC(C)(C)[C@@]1(O)/C=C/C(C)=C\C(=O)O [abscisic acid, reference compound] | ++++ (inhibition≧90%) | – | –
